Data as given in patent publication US20160031839A1, “ARGININE […] INHIBITORS AND USES THEREOF” (EPIZYME, INC., priority 2013, published 2016).
Read-outs that look alike come from different tables or passages of the source.

Biological target: T1, PRMT3 (Homo sapiens, UniProt O60678)
T1 construct: made in house; host or cells: E. coli BL21(DE3) Gold
Assay: PRMT3 Biochemical Assay
Excerpt: Peptide containing the classic RMT substrate motif was synthesized with an N-terminal linker-affinity tag motif and a C-terminal amide cap by 21st Century Biochemicals. The peptide was purified by high-performance liquid chromatography (HPLC) to greater than 95% purity and confirmed by liquid chromatography mass spectrometry (LC-MS). The sequence was Biot-Ahx-[…]-amide (SEQ ID NO.:11).
Full-length human PRMT3 (NM_005788.3) isoform 1 transcript clone was amplified from an HEK 293 cDNA library and subcloned into pGEX-KG (GE Life Sciences). The resulting construct encodes an N-terminal GST tag and a thrombin cleavage sequence
GST-tagged PRMT3 was eluted with 50 mM Tris, 2 mM glutathione, pH 7.1 and 50 mM Tris, 20 mM glutathione, pH 7.1. Pooled fractions were dialysed in 20 mM Tris, 50 mM NaCl, 5% glycerol, 1 mM EDTA, 1 mM DTT, pH7.5 (Buffer B) and applied to a Q Sepharose Fast Flow column. GST-tagged PRMT3 was eluted by 500 mM NaCl in buffer B. Pooled fractions were dialyzed in 25 mM phosphate buffer, 100 mM NaCl, 5% glycerol, 2 mM DTT, pH 6.8 (Buffer C) and loaded on to a ceramic hydroxyapatite column. GST-tagged PRMT3 eluted with 25-400 mM phosphate in buffer C. Protein was concentrated and buffer was exchanged to 20 mM Tris, 150 mM NaCl, 5% glycerol, 5 mM β-mercaptoethanol, pH7.8 by ultrafiltration. The purity of recovered protein was 70%.
General Procedure for PRMT3 Enzyme Assays on Peptide Substrates.
The assays were all performed in a buffer consisting of 20 mM Bicine (pH=7.6), 1 mM TCEP, 0.005% BSG, and 0.002% Tween 20, prepared on the day of use. Compounds in 100% DMSO (1 ul) were spotted into a polypropylene 384-well V-bottom plates (Greiner) using a Platemate Plus outfitted with a 384-channel head (Thermo Scientific). DMSO (1 ul) was added to Columns 11, 12, 23, 24, rows A-H for the maximum signal control and 1 ul of SAH, a known product and inhibitor of PRMT3, was added to columns 11, 12, 23, 24, rows I-P for the minimum signal control. A cocktail (40 ul) containing the PRMT3 enzyme was added by Multidrop Combi (Thermo-Fisher). The compounds were allowed to incubate with PRMT3 for 30 min at room temperature, then a cocktail (10 ul) containing SAM and peptide was added to initiate the reaction (final volume=51 ul). The final concentrations of the components were as follows: PRMT3 was 0.5 nM, ^3H-SAM was 100 nM, non-radiolabeled SAM was 1.8 uM, peptide was 330 nM, SAH in the minimum signal control wells was 1 mM, and the DMSO concentration was 2%. The assays were stopped by the addition of potassium chloride (10 ul) to a final concentration of 100 mM. 50 ul of the reaction in the 384-well polypropylene plate was then transferred to a 384-well Flashplate and the biotinylated peptides were allowed to bind to the streptavidin surface for at least 1 hour before being washed once with 0.1% Tween20 in a Biotek ELx405 plate washer. The plates were then read in a PerkinElmer TopCount plate reader to measure the quantity of ^3H-labeled peptide bound to the Flashplate surface, measured as disintegrations per minute (dpm) or alternatively, referred to as counts per minute (cpm).
Where dpm=disintegrations per minute, cmpd=signal in assay well, and min and max are the respective minimum and maximum signal controls.
Where top and bottom are the normally allowed to float, but may be fixed at 100 or 0 respectively in a 3-parameter fit. The Hill Coefficient normally allowed to float but may also be fixed at 1 in a 3-parameter fit. Y is the % inhibition and X is the compound concentration.

[1] = Table 2, biochemical evaluation, read-out: PRMT3 IC50 (class)
[2] = Table 2a, numerical, single experiment or average of multiple experiments, read-out: PRMT3 IC50

T1 sequence (O60678 with tags, fused parts or gaps): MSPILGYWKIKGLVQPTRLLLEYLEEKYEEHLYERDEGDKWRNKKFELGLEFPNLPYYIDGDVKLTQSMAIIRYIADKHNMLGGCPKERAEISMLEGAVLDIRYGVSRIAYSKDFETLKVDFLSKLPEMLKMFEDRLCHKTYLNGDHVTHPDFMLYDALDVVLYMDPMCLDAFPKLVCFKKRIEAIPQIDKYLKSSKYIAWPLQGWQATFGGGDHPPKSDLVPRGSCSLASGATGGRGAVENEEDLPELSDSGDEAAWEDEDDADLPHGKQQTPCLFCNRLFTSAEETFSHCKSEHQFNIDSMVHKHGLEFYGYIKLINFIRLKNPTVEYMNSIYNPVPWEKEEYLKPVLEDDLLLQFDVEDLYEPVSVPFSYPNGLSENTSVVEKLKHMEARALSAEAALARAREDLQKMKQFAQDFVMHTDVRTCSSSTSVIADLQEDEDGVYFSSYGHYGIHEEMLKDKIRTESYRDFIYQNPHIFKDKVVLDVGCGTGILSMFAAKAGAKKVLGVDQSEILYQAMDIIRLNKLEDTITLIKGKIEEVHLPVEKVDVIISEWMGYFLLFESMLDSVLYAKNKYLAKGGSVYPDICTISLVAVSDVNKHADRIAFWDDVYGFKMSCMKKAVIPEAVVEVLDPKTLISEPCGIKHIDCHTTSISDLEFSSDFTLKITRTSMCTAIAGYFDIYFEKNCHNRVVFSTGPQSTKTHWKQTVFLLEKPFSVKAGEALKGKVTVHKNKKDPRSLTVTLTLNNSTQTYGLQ

CN(CCN)Cc1ccnn1-c1ccc(C#N)cc1 [Compound 2, 4-(5-(((2-aminoethyl)(methyl)amino)methyl)-1H-pyrazol-1-yl)benzonitrile]
IC50 [1]: > 10 µM
IC50 [2]: > 10 µM

CN(CCN)Cc1n[nH]nc1-c1ccc(C#N)cc1 [Compound 3, 4-(5-(((2-aminoethyl)(methyl)amino)methyl)-2H-1,2,3-triazol-4-yl)benzonitrile]
IC50 [1]: > 10 µM
IC50 [2]: > 10 µM

CN(CCN)Cc1ncoc1-c1ccc(C#N)cc1 [Compound 1, 4-(4-(((2-aminoethyl)(methyl)amino)methyl)oxazol-5-yl)benzonitrile]
IC50 [1]: > 10 µM
IC50 [2]: > 10 µM
